# Data taken from patent publication US9233138B2, “Compositions for promoting HIV-1 virolysis and methods using same” (Drexel University, priority 2013, dated 2016).
# “Also recorded” adds a separate entry of the source. Read-outs that look alike come from different tables or passages of the source.
# B1: cyanovirin-N (protein)
# chain: LGKFSQTCYNSAIQGSVLTSTCERTNGGYNTSSIDLNSVIENVDGSLKWQPSNFIETCRNTQLAGSSELAAECKTRAQQFVSTKINLDDHIANIDGTLKYE
# modifications: cyanovirin-N fragment
# Key:
# [1] = tested on: HIV-1 BaL pseudotyped virus; type: cell-based; conditions: for IC50: read-out: IC50, inhibition of HIV-1 BaL viral entry
# [2] = tested on: HIV-1 BaL pseudotyped virus
# VSV pseudotyped virus [3] = tested on: VSV pseudotyped virus; set-up: species or system Vesicular Stomatitis Virus
# VSV pseudotyped virus [4] = type: cell-based, Vesicular Stomatitis Virus
# [5] = tested on: fully infectious HIV-1 BaL; assay: Virolysis assay, p24 leakage ELISA, fully infectious virus; conditions: FIG. 5; read-out: IC50 for p24 leakage from fully infectious HIV-1 BaL
# HIV-1 BaL pseudovirus [6] = conditions: 100 nM, 10 to 30 min at 37° C., compared with PBS treated virus
# Protocol: The compounds were incubated with the HIV-1 BaL pseudovirus for 30 min at 37° C. before fixing the virions with 0.1% paraformaldehyde and loaded onto a holey carbon 200 mesh grid for TEM analysis. The grids were stained with 1% uranyl acetate and loaded onto a JEM 2100 microscope system (JEOL, Japan) operated at 120 kV. Energy-dispersive X-ray (EDX) spectroscopy was conducted on the sample (blue) and the empty mesh (red) in order to confirm assignment of virion particles.
# Transmission electron microscopy (TEM) analysis was conducted to assess the morphology of untreated and D4- and D8-treated virions. Pseudotyped HIV-1 BaL was treated with D4 or D8 at 100 nM from 10 to 30 min at 37° C. The samples were then spun for 2 hours at 16,000 rpm in an ultracentrifuge (Eppendorf) at 4° C. The residual virions were fixed using 0.1% paraformaldehyde for 15 min at 4° C. The paraformaldehyde was filtered using a 100 kDa filter (Millipore), and the virions were resuspended in deionized water. The samples were then loaded onto a lacey carbon 200 mesh grid (Pacific Grid Tech), and the grid was then negatively stained using 2% uranyl acetate. Once the grid was dried, the samples were loaded onto a JEM 2100 microscope system (JEOL, Japan) operated at 120 kV. The virus images and the background mesh were evaluated by energy-dispersive X-ray spectroscopy (EDX) in order to confirm identification of virions. […]
# HOS.T4.R5 cells [7] = tested on: HOS.T4.R5 cells
# HIV-1 group M clades = conditions: read-out: IC50, antiviral activity against all HIV-1 group M clades; cited from earlier work
# Env / gp120 = conditions: cited from earlier work
# HIV-1 BaL pseudovirus [8] = conditions: D4 and D8 50 nM; competitor serial dilution from 0.5 μM
# HOS.T4.R5 cells [9] = assay: Cytotoxicity assay with WST-1 reagent; set-up: dose or concentration left out as unconfirmed; conditions: 24 hours post-exposure, FIG. 3
# A-MLV pseudotyped virus = type: cell-based, Amphotropic Murine Leukemia Virus
molecule,measurement,setting,value
"(G4S)4-MPER [linker(4)-MPER, reference compound]",virus inactivation accompanying p24 leakage,[1],not associated with equivalent virus inactivation
same,p24 leakage,"[2]; non-His-tagged peptide, FIG. 13C",Significant p24 leakage
D4: fusion of CVN and MPER with (Gly4Ser)4-His6 linker: SEQ ID NO:1-(SEQ ID NO:6)4-SEQ ID NO:5-SEQ ID NO:11,"p24 leakage, VSV-envelope control virus",VSV pseudotyped virus [3],no leakage
same,IC50,[1],0.58 ± 0.069 nM
same,"viral entry inhibition, VSV envelope pseudovirus",VSV pseudotyped virus [4],no significant dose-dependent viral entry inhibition
same,IC50,[5],200 ± 22 nM
same,virion morphology after treatment (TEM),HIV-1 BaL pseudovirus [6],significant morphological differences relative to intact virions
same,"cytotoxicity (cell viability, WST-1)",HOS.T4.R5 cells [7],No statistically significant differences
same,IC50,"[2]; HIV-1 BaL pseudovirus, 30 min incubation, relative to 1% Triton X-100 lysed virus, FIG. 4A, read-out: IC50 for viral leakage (p24 release)",14.2 ± 0.8 nM
"microvirin [MVN, reference compound]",antiviral property / infectivity inhibition of MVN-based DAVEI,[1],only exhibited antiviral property
same,IC50,HIV-1 group M clades,2 to 167 nM
same,virolytic property of MVN-based DAVEI,[2]; FIG. 10C,only exhibited antiviral property
same,causes gp120 shedding?,Env / gp120,No
same,conformationally activates Env?,Env / gp120,No
B1,IC50,[1],0.16 ± 0.031 nM
same,"viral entry inhibition, VSV envelope pseudovirus",VSV pseudotyped virus [4],no significant dose-dependent viral entry inhibition
same,competition of the virolytic activity of both D4 and D8,HIV-1 BaL pseudovirus [8],observed in a dose-dependent fashion
same,"cytotoxicity (cell viability, WST-1)",HOS.T4.R5 cells [9],no significant cytotoxicity; also recorded: No statistically significant differences
same,leakage of intraviral p24,"[2]; at concentrations up to at least 10 μM, FIG. 4A",unable to induce the leakage of intraviral p24
same,"viral entry inhibition, A-MLV envelope pseudovirus",A-MLV pseudotyped virus,no significant dose-dependent viral entry inhibition
same,causes gp120 shedding?,Env / gp120,No
same,conformationally activates Env?,Env / gp120,No
